Here are results for 1 sequence from US11248022B2, “Glypican-3 peptide reagents and methods” (THE REGENTS OF THE UNIVERSITY OF MICHIGAN, priority 2017, dated 2022).

The nature of data set [1]: Histology of vital organs post-peptide administration (acute toxicity). It is filed as in vivo, mice. Particulars: 2 hours post-injection; brain, heart, lung, liver, spleen, kidney, stomach, intestine, cecum, colon. The method, then: Vital organs were harvested post peptide administration in mice to evaluate acute toxicity of peptide probe with histology observation. Mice bearing human HCC xenograft tumors were sacrificed 2 hours post-injection of ALL*-Cy5.5.

Data set [2] concerns HCC xenograft tumor overexpressing GPC3. The experiment in a line: In vivo handheld dual axes confocal endomicroscope imaging. More on the design: species or system mice. The method, then:
GPC3 expression from human HCC xenograft tumors was evaluated in real time by collecting optical sections in vivo using a handheld 5.5 mm diameter dual axes confocal endomicroscope. A solid-state diode laser (300 mW, CNI Laser Inc.) provided illumination at λex=671 nm. A parabolic mirror focused the illumination and collection beams to overlap below the tissue surface with lateral and axial resolution of 2 and 5 μm, respectively. A compact, 3D monolithic scanner located in the distal tip provided large vertical displacements and wide angular deflections to produce images in the vertical (XZ) and horizontal (XY) planes with a FOV of 1000×430 and 1000×1000 μm^2, respectively. NIR fluorescence is collected and passes through a band pass filter (FF01-716/40-25, Semrock) that transmits from 696-736 nm with >93% efficiency for detection with a photomultiplier tube (PMT, H7422PA-40, Hamamatsu) detector. The peptides were injected via the tail vain, and dissected away the skin overlying the tumor to gain access. The distal tip of the endomicroscope was placed in contact with the tumor using a drop of saline to couple the light. Laser power <2 mW on the tissue was used to avoid photobleaching. NIR fluorescence images were collected at 5 frames per sec. 3D volumetric images were reconstructed from a series of images collected in the vertical plane using Amira software (ver 5.4.3, FEI Corporation).
The probe was small enough to be comfortably held in the surgeon's hand during surgery, FIG. 12A, for in vivo imaging of biomarker expression. Its diameter was 5.5 mm and delivered 671 nm near-infrared laser at 2 mW. Mouse carrying HCC xenograft tumor overexpressing GPC3 was first injected with 250 μL 300 μM ALL*-Cy5.5 peptide intravenously and after 2 hours the probe was held in contact with exposed subcutaneous tumor to acquire in vivo peptide binding images, FIG. 12B. Images were collected in either the vertical or horizontal plane with 430 μm depth or 1000×1000 μm^2 area, respectively, at 5 frames per second. With measured lateral resolution of 2.49 μm and axial resolution of 4.98 μm, each peptide stained cell can be clearly seen (arrows). […] Strong uptake (arrows) of ALL*-Cy5.5 in tumor was captured on optical sections collected in the horizontal (1000×1000 μm^2, Video 1) FIG. 12C and vertical (1000×430 μm^2, Video 2) FIG. 12D planes, respectively. A series of vertical cross-section images were reconstructed into 3D MIP volume (Video 3), FIG. 12E.

Ends that are not written are not given here.

As to “ALLANHEELFQT (SEQ ID NO: 1) peptide labeled with Cy5.5 via a GGGSK linker on the C-terminus (ALLANHEELFQTGGGSK-{Cy5.5}) [ALL*-Cy5.5]”, the “acute peptide toxicity on histology of vital organs” value in data set [1] is “No signs of acute peptide toxicity”. The “fluorescent signal relative to QLE*-Cy5.5” value in data set [2] (2 hours after i.v. injection) is on record as 2.9 fold. In addition, in data set [2] (2 hours after i.v. injection, n=8), the “fluorescent intensity at tumor” value was found to be 47±13. Besides, the “uptake/staining in tumor on optical sections” value in data set [2] (horizontal and vertical planes) is recorded as “Strong uptake”.
